Consider eight compounds from US6620833B1, “Substituted benzimidazoles, production and use thereof as agents for combating parasitic protozoas” (Bayer Aktiengesellschaft, priority 1998, dated 2003).

Assay type in all cases: in vivo
In one experiment the test system is Eimeria acervulina. The experiment can be described thus: Cage experiment on coccidiosis/chicks, E. acervulina readout. As to conditions: first symbol of cell.
Another experiment concerns Eimeria maxima. The experiment can be described thus: Cage experiment on coccidiosis/chicks, E. maxima readout. Particulars: second symbol of cell.
The test system of a further experiment is Eimeria tenella. The experiment can be described thus: Cage experiment on coccidiosis/chicks, E. tenella readout. Particulars: third symbol of cell.

SMILES strings stand for the structures.
Note: key: 2=full action; 1=slight action; 0=inactive; D=death.

As to `COC(=O)N(C)Cn1c(C(F)(F)F)nc2c(Br)cc3c(c21)OC(F)(F)C(F)(F)O3` [Ex. 2], the “Efficacy against Eimeria acervulina” value in the experiment with Eimeria acervulina (Table 4, dose 2.5 ppm) is on record as 1; in the experiment with Eimeria acervulina (Table 4, dose 5 ppm), 2; with Eimeria acervulina (Table 4, dose 10 ppm), “D D D”. Besides, the “Efficacy against Eimeria maxima” value in the experiment with Eimeria maxima (Table 4, dose 2.5 ppm) is reported as 2; in the experiment on Eimeria maxima (Table 4, dose 5 ppm), 2; in the experiment on Eimeria maxima (Table 4, dose 10 ppm), “D D D”. Also, the “Efficacy against Eimeria tenella” value is on record as 1 in the experiment with Eimeria tenella (Table 4, dose 2.5 ppm); 2 with Eimeria tenella (Table 4, dose 5 ppm); “D D D” in the experiment with Eimeria tenella (Table 4, dose 10 ppm).

Take `COC(=O)N(C)Cn1c(C(F)(F)F)nc2c(Cl)cc3c(c21)OC(F)(F)C(F)(F)O3` [Ex. 3]: the “Efficacy against Eimeria acervulina” value in the experiment on Eimeria acervulina (Table 4, dose 2.5 ppm) is recorded as 0; in the experiment on Eimeria acervulina (Table 4, dose 5 ppm), 2; with Eimeria acervulina (Table 4, dose 10 ppm) it was 2. The “Efficacy against Eimeria maxima” value in the experiment on Eimeria maxima (Table 4, dose 2.5 ppm) is given as 2; in the experiment on Eimeria maxima (Table 4, dose 5 ppm), 2; with Eimeria maxima (Table 4, dose 10 ppm), 2. Also, the “Efficacy against Eimeria tenella” value amounted to 1 in the experiment with Eimeria tenella (Table 4, dose 2.5 ppm); 2 in the experiment with Eimeria tenella (Table 4, dose 5 ppm); 2 in the experiment with Eimeria tenella (Table 4, dose 10 ppm).

Take `CCN(Cn1c(C(F)(F)F)nc2c(Cl)cc3c(c21)OC(F)(F)C(F)(F)O3)C(=O)OC` [Ex. 4]: the “Efficacy against Eimeria acervulina” value with Eimeria acervulina (Table 4, dose 2.5 ppm) worked out at 1; with Eimeria acervulina (Table 4, dose 5 ppm) it was 1; in the experiment with Eimeria acervulina (Table 4, dose 10 ppm), 1. Moreover, the “Efficacy against Eimeria maxima” value in the experiment on Eimeria maxima (Table 4, dose 2.5 ppm) came out at 2; in the experiment with Eimeria maxima (Table 4, dose 5 ppm) it was 1; in the experiment with Eimeria maxima (Table 4, dose 10 ppm) it was 1. Also, the “Efficacy against Eimeria tenella” value with Eimeria tenella (Table 4, dose 2.5 ppm) came out at 1; in the experiment on Eimeria tenella (Table 4, dose 5 ppm), 1; with Eimeria tenella (Table 4, dose 10 ppm), 1.

As for `CCCCN(Cn1c(C(F)(F)F)nc2c(Br)cc3c(c21)OC(F)(F)C(F)(F)O3)C(=O)OCC` [Ex. 5], the “Efficacy against Eimeria acervulina” value was found to be 1 in the experiment with Eimeria acervulina (Table 4, dose 2.5 ppm); 1 in the experiment on Eimeria acervulina (Table 4, dose 5 ppm); 1 in the experiment on Eimeria acervulina (Table 4, dose 10 ppm). In addition, the “Efficacy against Eimeria maxima” value in the experiment with Eimeria maxima (Table 4, dose 2.5 ppm) is 2; in the experiment on Eimeria maxima (Table 4, dose 5 ppm), 1; with Eimeria maxima (Table 4, dose 10 ppm), 1. The “Efficacy against Eimeria tenella” value was 1 in the experiment with Eimeria tenella (Table 4, dose 2.5 ppm); 1 in the experiment with Eimeria tenella (Table 4, dose 5 ppm); 2 with Eimeria tenella (Table 4, dose 10 ppm).

For `CCOC(=O)N(Cn1c(C(F)(F)F)nc2c(Br)cc3c(c21)OC(F)(F)C(F)(F)O3)C(C)C` [Ex. 6], the “Efficacy against Eimeria acervulina” value in the experiment on Eimeria acervulina (Table 4, dose 2.5 ppm) was 1; in the experiment on Eimeria acervulina (Table 4, dose 5 ppm), 2; with Eimeria acervulina (Table 4, dose 10 ppm), 2. Moreover, the “Efficacy against Eimeria maxima” value is listed as 1 in the experiment on Eimeria maxima (Table 4, dose 2.5 ppm); 2 in the experiment on Eimeria maxima (Table 4, dose 5 ppm); 2 in the experiment on Eimeria maxima (Table 4, dose 10 ppm). The “Efficacy against Eimeria tenella” value in the experiment on Eimeria tenella (Table 4, dose 2.5 ppm) is listed as 1; with Eimeria tenella (Table 4, dose 5 ppm) it was 2; with Eimeria tenella (Table 4, dose 10 ppm), 2.

As to `CCOC(=O)N(Cn1c(C(F)(F)F)nc2c(Cl)cc3c(c21)OC(F)(F)C(F)(F)O3)C(C)C` [Ex. 7], the “Efficacy against Eimeria acervulina” value with Eimeria acervulina (Table 4, dose 2.5 ppm) is given as 2; with Eimeria acervulina (Table 4, dose 5 ppm), 2; in the experiment with Eimeria acervulina (Table 4, dose 10 ppm) it was 2. Moreover, the “Efficacy against Eimeria maxima” value in the experiment with Eimeria maxima (Table 4, dose 2.5 ppm) turned out to be 1; in the experiment on Eimeria maxima (Table 4, dose 5 ppm), 2; with Eimeria maxima (Table 4, dose 10 ppm), 2. Further, the “Efficacy against Eimeria tenella” value in the experiment on Eimeria tenella (Table 4, dose 2.5 ppm) is reported as 2; in the experiment on Eimeria tenella (Table 4, dose 5 ppm), 2; with Eimeria tenella (Table 4, dose 10 ppm), 1.

As for `COC(=O)N(Cn1c(C(F)(F)F)nc2c(Cl)cc3c(c21)OC(F)(F)C(F)(F)O3)c1ccccc1C` [Ex. 8], the “Efficacy against Eimeria acervulina” value in the experiment with Eimeria acervulina (Table 4, dose 2.5 ppm) amounted to 0; with Eimeria acervulina (Table 4, dose 5 ppm), 0; in the experiment with Eimeria acervulina (Table 4, dose 10 ppm) it was 2. Also, the “Efficacy against Eimeria maxima” value with Eimeria maxima (Table 4, dose 2.5 ppm) is on record as 0; in the experiment with Eimeria maxima (Table 4, dose 5 ppm), 1; in the experiment on Eimeria maxima (Table 4, dose 10 ppm) it was 2. In addition, the “Efficacy against Eimeria tenella” value is given as 0 in the experiment on Eimeria tenella (Table 4, dose 2.5 ppm); 1 with Eimeria tenella (Table 4, dose 5 ppm); 2 with Eimeria tenella (Table 4, dose 10 ppm).

For `CCOC(=O)N(Cn1c(C(F)(F)F)nc2c(Cl)cc3c(c21)OC(F)(F)C(F)(F)O3)C1CCCCC1` [Ex. 9], the “Efficacy against Eimeria acervulina” value in the experiment on Eimeria acervulina (Table 4, dose 2.5 ppm) is given as 0; in the experiment on Eimeria acervulina (Table 4, dose 5 ppm), 2; in the experiment on Eimeria acervulina (Table 4, dose 10 ppm) it was 2. Further, the “Efficacy against Eimeria maxima” value with Eimeria maxima (Table 4, dose 2.5 ppm) turned out to be 1; with Eimeria maxima (Table 4, dose 5 ppm) it was 2; with Eimeria maxima (Table 4, dose 10 ppm) it was 2. Moreover, the “Efficacy against Eimeria tenella” value in the experiment on Eimeria tenella (Table 4, dose 2.5 ppm) is given as 1; in the experiment with Eimeria tenella (Table 4, dose 5 ppm) it was 1; with Eimeria tenella (Table 4, dose 10 ppm), 2.
